Reference: ChEMBL document CHEMBL5260832, “Hepatoprotective natural triterpenoids” (Eur J Med Chem, 2018)
pIC50: −log10 of the molar value.

Tests used:
Hepatocyte [1] = assay: Hepatoprotective activity against D-GaIN/TNFalpha -induced cell death in mouse hepatocyte assessed as inhibition of cell death; format: functional, cell-based; set-up: Activity: concentration or dose not given beside the values
[2] = Hepatotoxicity in D-GaIN induced in Wistar rat model hepatocyte assessed as reduction in PLA2 level; format: toxicity, cell-based
Mus musculus [3] = assay: Hepatoprotective activity against D-GaIN/CCl4 induced liver injury mouse model assessed as reduction in GPT level at 30 microg/kg, iv relative to control; format: functional; set-up: scale not given: the % may be the effect or the level left; conditions: dose 30 µg/kg
[4] = Antiproliferative activity against rat HSC-T6 cells assessed as reduction in cell viability incubated for 48 hrs by MTT assay; format: functional, cell-based; conditions: HSC-T6, 48 h
L02 = assay: Hepatoprotective activity against D-GaIN-induced cell damage in human HL7702 cells assessed as increase in cell survival at 10 uM relative to control; format: functional
[5] = Hepatotoxicity in rat assessed as reduction in GPT level at 1.0 mg/mL measured after 48 hrs (reference value: 291 IU/L); format: toxicity; conditions: in vivo
Mus musculus [6] = species: Mus musculus; assay: Hepatoprotective activity in CCl4-induced toxicity in liver injured mouse assessed as increase in inhibition of liver damage relative to control; format: functional; set-up: concentration or dose not given beside the values
Hepatocyte [7] = assay: Hepatoprotective activity against D-GaIN/TNFalpha-induced cell death in mouse hepatocyte at 100 uM relative to control; format: functional, cell-based; conditions: Mus musculus, Hepatocyte

C=C(C)[C@@H]1CC[C@]2(C(=O)O)CC[C@]3(C)[C@H](CC[C@@H]4[C@@]5(C)C[C@@H](O)[C@H](O)[C@](C)(CO)[C@@H]5[C@H](O)C[C@]43C)[C@@H]12
pIC50 (Hepatocyte [1]; Mus musculus, Hepatocyte): 4.29

CC1(C)[C@@H](O[C@@H]2O[C@H](C(=O)O)[C@@H](O)[C@H](O)[C@H]2O[C@@H]2O[C@H](C(=O)O)[C@@H](O)[C@H](O)[C@H]2O)CC[C@]2(C)[C@H]3C(=O)C=C4[C@@H]5C[C@]6(C)C[C@@H](OC6=O)[C@]5(C)CC[C@@]4(C)[C@]3(C)CC[C@@H]12
pIC50 [2]: 4.49

CC(C)=CCC[C@@](C)(O)[C@H]1CC[C@]2(C)[C@@H]1[C@H](O)C[C@@H]1[C@@]3(C)CC[C@H](O)C(C)(C)[C@@H]3[C@@H](O[C@@H]3O[C@H](CO)[C@@H](O)[C@H](O)[C@H]3O[C@@H]3O[C@H](CO)[C@@H](O)[C@H](O)[C@H]3O)C[C@]12C
Activity (Mus musculus [3]): 73%

CC1(C)CC[C@]2(N)C(=O)C[C@]3(C)C(=CC[C@@H]4[C@@]5(C)C[C@H](O)[C@H](O[C@@H]6O[C@H](CO)[C@@H](O)[C@H](O)[C@H]6O)C(CO)(CO)[C@@H]5CC[C@]43C)[C@@H]2C1
pIC50 [4]: 4.16

CC(CC(=O)C[C@@H](C)C1=CC(=O)[C@@]2(C)[C@@H]3C(=O)C[C@H]4C(C)(C)[C@@H](O)CC[C@]4(C)[C@H]3C(=O)C[C@]12C)C(=O)O (stereo partly drawn)
Activity (L02): 75%

CC1(C)CC[C@]2(C(=O)O[C@@H]3O[C@H](CO[C@@H]4O[C@H](CO)[C@@H](O)[C@H](O)[C@H]4O)[C@@H](O)[C@H](O[C@@H]4O[C@H](CO)[C@@H](O)[C@H](O)[C@H]4O)[C@H]3O)CC[C@]3(C)C(=CC[C@@H]4[C@@]5(C)CC[C@H](O[C@@H]6O[C@H](CO)[C@@H](O)[C@H](O)[C@H]6O)[C@@](C)(C(=O)O)[C@@H]5CC[C@]43C)[C@@H]2C1
Activity [5]: 279 IU/L

CC1=CC[C@H]([C@@H](C)[C@H]2CC[C@@]3(C)CCC[C@H]4C(C)(C)O[C@@H]5CC(=O)O[C@@]54CC(=O)[C@H](O)C[C@]23C)OC1=O
Activity (Hepatocyte [1]): 37.6%

CC(C)=CCC[C@@](C)(O)[C@H]1CC[C@]2(C)[C@@H]1[C@H](O)C[C@@H]1[C@@]3(C)CC[C@H](O[C@@H]4O[C@H](CO)[C@@H](O)[C@H](O)[C@H]4O[C@@H]4O[C@H](CO)[C@@H](O)[C@H](O)[C@H]4O)C(C)(C)[C@@H]3CC[C@]12C
Activity (Mus musculus [3]): 34%

C[C@@H]1C(=O)O[C@H]2[C@@H]1O[C@]13O[C@@]4(CC[C@]5(C)C(=O)[C@@](C)(O)[C@H]2[C@H]15)C[C@]12OC(=O)C[C@H]1OC(C)(C)[C@@H]2C[C@@H]1O[C@@]14C3=O
Activity (Hepatocyte [1]): 37.6%

CC(=O)OC[C@@]1(C)[C@@H]2CC[C@]3(C)[C@H](C(=O)C=C4[C@@H]5[C@@H](C)[C@H](C)CC[C@]5(C(=O)O)CC[C@]43C)[C@@]2(C)CC(=O)[C@@H]1O
Activity (Mus musculus [6]): 35.9%

CC1(C)CC[C@]2(N)C(=O)C[C@]3(C)C(=CC[C@@H]4[C@@]5(C)C[C@H](O)[C@H](O)C(CO)(CO)[C@@H]5CC[C@]43C)[C@@H]2C1
pIC50 [4]: 5.28

CC(C)=CCC[C@](C)(O)[C@H]1CC[C@]2(C)[C@@H]1[C@H](O)C[C@@H]1[C@@]3(C)CC[C@H](O[C@@H]4O[C@H](CO)[C@@H](O)[C@H](O)[C@H]4O)C(C)(C)[C@@H]3CC[C@]12C [GINSENOSIDE RH2]
Activity (Mus musculus [3]): 31%

CC(=O)[C@H]1CC(=O)[C@@]2(C)C3=C(C(=O)C[C@]12C)[C@@]1(C)CCC(=O)C(C)(C)[C@@H]1C[C@@H]3O
Activity (L02): 58%

C/C(CC(=O)CC(C)C(=O)O)=C1/CC(=O)[C@@]2(C)C3=C(C(=O)C[C@]12C)[C@@]1(C)CC[C@H](O)C(C)(C)[C@@H]1CC3=O (stereo partly drawn)
Activity (L02): 55%

CC(=O)OC[C@@]1(C)[C@@H]2CC[C@]3(C)[C@H](C(=O)C=C4[C@@H]5[C@@H](C)[C@H](C)CC[C@]5(C(=O)O)CC[C@]43C)[C@@]2(C)CC(=O)[C@@H]1OC(C)=O
Activity (Mus musculus [6]): 22%

COC(=O)[C@]12CC[C@@H](C)[C@H](C)[C@H]1C1=CC[C@@H]3[C@@]4(C)CC(=O)[C@H](O)[C@@](C)(COC(C)=O)[C@@H]4CC[C@@]3(C)[C@]1(C)CC2
Activity (Mus musculus [6]): 46.4%

CC1=C2C3=CC[C@@H]4[C@@]5(C)C[C@@H](O)[C@H](O)[C@@](C)(CO)[C@@H]5CC[C@@]4(C)[C@]3(C)CC[C@@]2(C(=O)O)CC[C@H]1C
pIC50 (Hepatocyte [7]): 4.29

CC1(C)CC[C@]2(C(=O)O[C@@H]3O[C@H](CO[C@@H]4O[C@H](CO)[C@@H](O)[C@H](O)[C@H]4O)[C@@H](O)[C@H](O[C@@H]4O[C@H](CO)[C@@H](O)[C@H](O)[C@H]4O)[C@H]3O)CC[C@]3(C)C(=CC[C@@H]4[C@@]5(C)CC[C@H](O)[C@@](C)(C(=O)O)[C@@H]5CC[C@]43C)[C@@H]2C1
Activity [5]: 279 IU/L

C/C(=C/C(=O)CC(C)C(=O)O)[C@H]1CC(=O)[C@@]2(C)C3=C(C(=O)C[C@]12C)[C@@]1(C)CC[C@H](O)C(C)(C)[C@@H]1C[C@@H]3O (stereo partly drawn)
Activity (L02): 65%

CC1(C)CC[C@]2(C(=O)O[C@@H]3O[C@H](CO)[C@@H](O)[C@H](O)[C@H]3O)CC[C@]3(C)C(=CC[C@@H]4[C@@]5(C)CC[C@H](O)[C@@](C)(C(=O)O)[C@@H]5CC[C@]43C)[C@@H]2C1
Activity [5]: 137 IU/L

C[C@@H]1O[C@@H](O[C@H]2[C@H](OC(=O)[C@]34CCC(C)(C)C[C@H]3C3=CC[C@@H]5[C@@]6(C)C[C@H](O)[C@H](O[C@@H]7O[C@H](CO)[C@@H](O)[C@H](O)[C@H]7O)C(CO)(CO)[C@@H]6CC[C@@]5(C)[C@]3(C)C[C@H]4O)OC[C@H](O)[C@@H]2O)[C@H](O)[C@H](O)[C@H]1O[C@@H]1OC[C@@H](O)[C@H](O[C@@H]2OC[C@](O)(CO)[C@H]2O)[C@H]1O [PLATYCODIN D]
pIC50 [4]: 5.75

C/C(=C\CCC(C)(O)[C@H]1C[C@H](O)[C@@]2(C)C3=C(C(=O)C[C@]12C)[C@@]1(C)CC[C@H](O)C(C)(C)[C@@H]1C[C@@H]3O)C(=O)O (stereo partly drawn)
Activity (L02): 43%

C[C@H]1[C@H](C)CC[C@]2(CO)CC[C@]3(C)C(=CC[C@@H]4[C@@]5(C)C[C@@H](O)[C@H](O)[C@@](C)(CO)[C@@H]5CC[C@]43C)[C@H]12
Activity (Mus musculus [6]): 39.7%

COC(=O)[C@]12CC[C@@H](C)[C@H](C)[C@H]1C1=CC[C@@H]3[C@@]4(C)C[C@@H](OC(C)=O)[C@H](O)[C@@](C)(COC(C)=O)[C@@H]4CC[C@@]3(C)[C@]1(C)CC2
Activity (Mus musculus [6]): 54.2%

CC1(C)CC[C@]2(C(=O)O[C@@H]3O[C@H](CO[C@@H]4O[C@H](CO)[C@@H](O)[C@H](O)[C@H]4O)[C@@H](O)[C@H](O)[C@H]3O)CC[C@]3(C)C(=CC[C@@H]4[C@@]5(C)CC[C@H](O[C@@H]6O[C@H](CO)[C@@H](O)[C@H](O)[C@H]6O)[C@@](C)(C(=O)O)[C@@H]5CC[C@]43C)[C@@H]2C1
Activity [5]: 279 IU/L

C[C@H]1[C@H](C)CC[C@]2(C(=O)O)CC[C@]3(C)C(=CC(=O)[C@@H]4[C@@]5(C)C[C@@H](O)[C@H](O)[C@@](C)(CO)[C@@H]5CC[C@]43C)[C@H]12
Activity (Mus musculus [6]): 25.6%

CC(C)=CCC[C@](C)(O)[C@H]1CC[C@]2(C)[C@@H]1[C@H](O)C[C@@H]1[C@@]3(C)CC[C@H](O)C(C)(C)[C@@H]3[C@@H](O[C@@H]3O[C@H](CO)[C@@H](O)[C@H](O)[C@H]3O[C@@H]3O[C@H](CO)[C@@H](O)[C@H](O)[C@H]3O)C[C@]12C [GINSENOSIDE RF]
Activity (Mus musculus [3]): 77%

CC1(C)CC[C@]2(C(=O)O)[C@H](O)C[C@]3(C)C(=CC[C@@H]4[C@@]5(C)C[C@H](O)[C@H](O[C@@H]6O[C@H](CO)[C@@H](O)[C@H](O)[C@H]6O)C(CO)(CO)[C@@H]5CC[C@]43C)[C@@H]2C1
pIC50 [4]: 4.87

C[C@@]1(CO)CC[C@]2(C(=O)O[C@@H]3O[C@H](CO)[C@@H](O)[C@H](O)[C@H]3O)CC[C@]3(C)C(=CC[C@@H]4[C@@]5(C)CC[C@H](O)[C@@](C)(C(=O)O)[C@@H]5CC[C@]43C)[C@@H]2C1
Activity [5]: 206 IU/L

C[C@@H]1O[C@@H](O[C@H]2[C@H](OC(=O)[C@]34CCC(C)(C)C[C@H]3C3=CC[C@@H]5[C@@]6(C)C[C@H](O)[C@H](O[C@@H]7O[C@H](CO)[C@@H](O)[C@H](O)[C@H]7O)C(CO)(CO)[C@@H]6CC[C@@]5(C)[C@]3(C)C[C@H]4O)OC[C@H](O)[C@@H]2O)[C@H](O)[C@H](O)[C@H]1O[C@@H]1OC[C@@H](O)[C@H](O)[C@H]1O
pIC50 [4]: 5.08

CC(CC(=O)C[C@@H](C)[C@H]1C[C@H](O)[C@@]2(C)C3=C(C(=O)C[C@]12C)[C@@]1(C)CC[C@H](O)C(C)(C)[C@@H]1C[C@@H]3O)C(=O)O (stereo partly drawn)
Activity (L02): 76%

C[C@@H]1O[C@@H](O[C@H]2[C@H](OC(=O)[C@]34CCC(C)(C)C[C@H]3C3=CC[C@@H]5[C@@]6(C)C[C@H](O)[C@H](O[C@@H]7O[C@H](CO)[C@@H](O)[C@H](O)[C@H]7O)[C@](C)(CO)[C@@H]6CC[C@@]5(C)[C@]3(C)C[C@H]4O)OC[C@H](O)[C@@H]2O)[C@H](O)[C@H](O)[C@H]1O[C@@H]1OC[C@@H](O)[C@H](O[C@@H]2OC[C@](O)(CO)[C@H]2O)[C@H]1O
pIC50 [4]: 5.98

CC(C)=CCC[C@@](C)(O)[C@H]1CC[C@]2(C)[C@@H]1[C@H](O)C[C@@H]1[C@@]3(C)CC[C@H](O)C(C)(C)[C@@H]3[C@@H](O[C@@H]3O[C@H](CO)[C@@H](O)[C@H](O)[C@H]3O[C@@H]3O[C@@H](C)[C@H](O)[C@@H](O)[C@H]3O)C[C@]12C
Activity (Mus musculus [3]): 50%
